Results published in patent US20240174622A1, “COMPOUND AND RADIOACTIVE LABELING COMPOUND” (NIHON MEDI-PHYSICS CO., LTD., priority 2021, published 2024).

Legend:
[1] = target: human serum albumin (HSA) (Homo sapiens, UniProt P02768); experiment: Evaluation of binding to albumin (HSA solution, PBS control); conditions: left to stand in HSA solution (45 mg/mL)
Description: Thereafter, the reaction liquids were added to a spin column (Sephadex G-100; manufactured by Cytiva), and centrifuged at 1500×g at 4° C. for 2 minutes. After separation, the radioactivity for each of the column and the eluate was measured with a gamma counter.
When a compound to be evaluated binds to albumin to form a composite, the compound passes through the column because of the increased molecular size.
As in Examples described above, PBS and human albumin were used to evaluate binding to albumin.
Thereafter, the reaction liquid was added to a spin column (Sephadex G-50; manufactured by Cytiva), and centrifuged at 1500×g at 4° C. for 2 minutes. After separation, the radioactivity of the column and the eluate was measured with a gamma counter.

[2] = tested on: LNCaP tumor-transplanted mouse; experiment: Internal radioactivity distribution using LNCaP tumor-transplanted mouse; assay type: in vivo
Description: (§1) The animal test was performed in compliance with the guidelines of Kyoto University Animal Experiment Committee. Male CB17/IcrJcl-Prkdc^scid mice were purchased from CLEA Japan, Inc. The animals were kept under 12 h/12 h, day/night cycle conditions and fed ad libitum with food and water. LNCaP cells (1.0×10^7 cells/mouse) or PC-3 cells (1.0×10^7 cells/mouse) were suspended in a mixture of PBS and Matrigel manufactured by Corning Life Sciences (1:1, 150 μL) and the suspension was subcutaneously transplanted to the right shoulder of mice under isoflurane anesthesia. Thereafter, the mice were kept for 40 to 60 days.
LNCaP or PC-3 tumor-implanted mice were administered saline solutions (185 kBq, 100 μL) of [^111In]In-PSMA-DA1 or [^111In]In-PSMA-DB from the tail vein (n=3 each). Mice were euthanized 1, 4, 24, 48, 96, and 192 hours after administration. Thereafter, blood and each organ were recovered, and the mass and radioactivity of the organs were measured.
The percentage (% ID) of the radioactivity amount to the administered radioactivity amount (injected dose) is shown as the value (% ID/g) divided by the blood mass or the organ mass (g).
LNCaP tumor-implanted mice prepared by the same method as in Example 1-1 were administered a saline solution (241 kBq/100 μL) of [^111In]In-PtDA from the tail vein (n=3). Mice were euthanized 1, 24, and 48 hours after administration. Thereafter, blood and each organ were recovered, and the mass and radioactivity of the organs were measured.
LNCaP tumor-implanted mice prepared by the same method as in Example 1-1 were administered a saline solution (259 kBq/100 μL each) of each of the radiolabeled compounds in Examples 3-1 to 3-3 or Comparative Examples 2-1 to 2-2 from the tail vein (n=2 to 3). Mice were euthanized 1, 4, 24, 48, 96, and 192 hours after administration. Thereafter, blood and each organ were recovered, and the mass and radioactivity of the organs were measured.
as §1, with “LNCaP cells (4.3×10^6 cells/mouse) or” for “LNCaP cells (1.0×10^7 cells/mouse) or”, “PC-3 cells (3.3×10^6 cells/mouse) were” for “PC-3 cells (1.0×10^7 cells/mouse) were”, “shoulder of CB17/IcrJcl-Prkdc^scid mice under” for “shoulder of mice under”
Mice were euthanized 1, 4, 24, 48, 96, and 192 hours after administration. Thereafter, blood and each organ were recovered, and the mass and radioactivity of the organs were measured.
The results are shown in Table 12 (Mean value±standard deviation, n=3).

Sequence of human serum albumin (HSA) (P02768 25-609): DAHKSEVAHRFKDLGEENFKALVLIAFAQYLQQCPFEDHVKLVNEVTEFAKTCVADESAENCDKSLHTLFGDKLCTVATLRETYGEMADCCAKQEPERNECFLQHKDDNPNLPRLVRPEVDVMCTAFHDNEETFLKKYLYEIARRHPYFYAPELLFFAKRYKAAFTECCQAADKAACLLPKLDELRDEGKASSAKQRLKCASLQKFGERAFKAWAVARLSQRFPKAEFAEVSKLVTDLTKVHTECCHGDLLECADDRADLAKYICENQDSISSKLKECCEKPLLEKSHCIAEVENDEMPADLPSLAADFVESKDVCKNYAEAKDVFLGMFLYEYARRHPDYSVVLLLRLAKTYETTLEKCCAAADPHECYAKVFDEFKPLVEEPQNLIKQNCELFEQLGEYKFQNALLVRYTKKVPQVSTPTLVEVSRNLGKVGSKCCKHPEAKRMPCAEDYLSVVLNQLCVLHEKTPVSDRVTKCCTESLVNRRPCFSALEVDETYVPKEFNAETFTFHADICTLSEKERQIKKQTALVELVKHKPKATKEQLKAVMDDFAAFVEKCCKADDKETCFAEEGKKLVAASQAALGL

**Q.** With O=C([O-])CN(CCN(CCc1ccc(NC(=O)[C@H](CCCCNC(=O)CCC(=O)NCCCC[C@H](NC(=O)N[C@@H](CCC(=O)O)C(=O)O)C(=O)O)NC(=O)CCCc2ccc(I)cc2)cc1)CCN(CC(=O)[O-])Cc1cccc(C(=O)[O-])n1)Cc1cccc(C(=O)[O-])n1.[111In+3] [[^111In]In-Neunpa-2] as the compound, how does the “radioactivity in the eluate (in words)” value [1] read?
**A.** significantly higher

**Q.** What about the Blood ([2]; 1 h after administration) of the same compound?
**A.** 13.6 ± 0.68 % ID/g

**Q.** And the Brain ([2]; 1 h after administration)?
**A.** 0.18 ± 0.00 % ID/g

**Q.** And the Heart ([2]; 1 h after administration)?
**A.** 3.74 ± 0.04 % ID/g

**Q.** And the Intestine ([2]; 1 h after administration)?
**A.** 1.22 ± 0.30 % ID/g

**Q.** What about the Kidney ([2]; 1 h after administration) of the same compound?
**A.** 90.1 ± 5.81 % ID/g

**Q.** What about the “LNCaP Tumor” value ([2]; 1 h after administration) of the same compound?
**A.** 7.44 ± 0.18 % ID/g

**Q.** And the Liver ([2]; 1 h after administration)?
**A.** 2.23 ± 0.34 % ID/g

**Q.** What about the Lung ([2]; 1 h after administration) of the same compound?
**A.** 8.99 ± 1.68 % ID/g

**Q.** And the Muscle ([2]; 1 h after administration)?
**A.** 1.09 ± 0.25 % ID/g

**Q.** What about the Pancreas ([2]; 1 h after administration) of the same compound?
**A.** 1.61 ± 0.42 % ID/g

**Q.** And the Spleen ([2]; 1 h after administration)?
**A.** 16.9 ± 2.52 % ID/g

**Q.** And the “Stomach (% ID)” value ([2]; 1 h after administration)?
**A.** 0.23 ± 0.06 % ID

**Q.** And the Blood ([2]; 4 h after administration)?
**A.** 5.73 ± 0.26 % ID/g

**Q.** What about the Brain ([2]; 4 h after administration) of the same compound?
**A.** 0.12 ± 0.01 % ID/g

**Q.** And the Heart ([2]; 4 h after administration)?
**A.** 1.78 ± 0.15 % ID/g

**Q.** What about the Intestine ([2]; 4 h after administration) of the same compound?
**A.** 1.05 ± 0.29 % ID/g

**Q.** And the Kidney ([2]; 4 h after administration)?
**A.** 126 ± 17.6 % ID/g

**Q.** What about the “LNCaP Tumor” value ([2]; 4 h after administration) of the same compound?
**A.** 8.57 ± 0.61 % ID/g

**Q.** What about the Liver ([2]; 4 h after administration) of the same compound?
**A.** 1.29 ± 0.02 % ID/g

**Q.** What about the Lung ([2]; 4 h after administration) of the same compound?
**A.** 4.14 ± 0.61 % ID/g

**Q.** What about the Muscle ([2]; 4 h after administration) of the same compound?
**A.** 0.61 ± 0.11 % ID/g

**Q.** What about the Pancreas ([2]; 4 h after administration) of the same compound?
**A.** 0.82 ± 0.05 % ID/g

**Q.** What about the Spleen ([2]; 4 h after administration) of the same compound?
**A.** 8.16 ± 3.89 % ID/g

**Q.** What about the “Stomach (% ID)” value ([2]; 4 h after administration) of the same compound?
**A.** 0.29 ± 0.18 % ID

**Q.** What about the Blood ([2]; 24 h after administration) of the same compound?
**A.** 2.48 ± 0.07 % ID/g

**Q.** And the Brain ([2]; 24 h after administration)?
**A.** 0.08 ± 0.01 % ID/g

**Q.** And the Heart ([2]; 24 h after administration)?
**A.** 0.79 ± 0.08 % ID/g

**Q.** What about the Intestine ([2]; 24 h after administration) of the same compound?
**A.** 0.68 ± 0.11 % ID/g

**Q.** And the Kidney ([2]; 24 h after administration)?
**A.** 101 ± 18.7 % ID/g

**Q.** And the “LNCaP Tumor” value ([2]; 24 h after administration)?
**A.** 8.61 ± 1.06 % ID/g

**Q.** What about the Liver ([2]; 24 h after administration) of the same compound?
**A.** 1.00 ± 0.15 % ID/g

**Q.** And the Lung ([2]; 24 h after administration)?
**A.** 2.26 ± 0.29 % ID/g

**Q.** And the Muscle ([2]; 24 h after administration)?
**A.** 0.27 ± 0.11 % ID/g

**Q.** What about the Pancreas ([2]; 24 h after administration) of the same compound?
**A.** 0.65 ± 0.05 % ID/g

**Q.** And the Spleen ([2]; 24 h after administration)?
**A.** 2.67 ± 0.59 % ID/g

**Q.** What about the “Stomach (% ID)” value ([2]; 24 h after administration) of the same compound?
**A.** 0.13 ± 0.06 % ID

**Q.** And the Blood ([2]; 48 h after administration)?
**A.** 0.20 ± 0.02 % ID/g

**Q.** And the Brain ([2]; 48 h after administration)?
**A.** 0.03 ± 0.00 % ID/g

**Q.** What about the Heart ([2]; 48 h after administration) of the same compound?
**A.** 0.14 ± 0.03 % ID/g

**Q.** And the Intestine ([2]; 48 h after administration)?
**A.** 0.23 ± 0.05 % ID/g

**Q.** What about the Kidney ([2]; 48 h after administration) of the same compound?
**A.** 11.7 ± 3.83 % ID/g

**Q.** And the “LNCaP Tumor” value ([2]; 48 h after administration)?
**A.** 4.92 ± 0.70 % ID/g

**Q.** And the Liver ([2]; 48 h after administration)?
**A.** 0.58 ± 0.23 % ID/g

**Q.** What about the Lung ([2]; 48 h after administration) of the same compound?
**A.** 0.40 ± 0.10 % ID/g

**Q.** What about the Muscle ([2]; 48 h after administration) of the same compound?
**A.** 0.05 ± 0.04 % ID/g

**Q.** What about the Pancreas ([2]; 48 h after administration) of the same compound?
**A.** 0.25 ± 0.09 % ID/g

**Q.** What about the Spleen ([2]; 48 h after administration) of the same compound?
**A.** 0.83 ± 0.20 % ID/g

**Q.** And the “Stomach (% ID)” value ([2]; 48 h after administration)?
**A.** 0.06 ± 0.03 % ID

**Q.** And the Blood ([2]; 96 h after administration)?
**A.** 0.13 ± 0.12 % ID/g

**Q.** What about the Brain ([2]; 96 h after administration) of the same compound?
**A.** 0.03 ± 0.02 % ID/g

**Q.** What about the Heart ([2]; 96 h after administration) of the same compound?
**A.** 0.14 ± 0.11 % ID/g

**Q.** And the Intestine ([2]; 96 h after administration)?
**A.** 0.17 ± 0.10 % ID/g

**Q.** And the Kidney ([2]; 96 h after administration)?
**A.** 9.71 ± 10.8 % ID/g

**Q.** What about the “LNCaP Tumor” value ([2]; 96 h after administration) of the same compound?
**A.** 3.35 ± 0.90 % ID/g

**Q.** And the Liver ([2]; 96 h after administration)?
**A.** 1.30 ± 1.30 % ID/g

**Q.** What about the Lung ([2]; 96 h after administration) of the same compound?
**A.** 0.36 ± 0.24 % ID/g

**Q.** And the Muscle ([2]; 96 h after administration)?
**A.** 0.03 ± 0.02 % ID/g

**Q.** What about the Pancreas ([2]; 96 h after administration) of the same compound?
**A.** 0.18 ± 0.12 % ID/g

**Q.** And the Spleen ([2]; 96 h after administration)?
**A.** 0.47 ± 0.23 % ID/g

**Q.** What about the “Stomach (% ID)” value ([2]; 96 h after administration) of the same compound?
**A.** 0.03 ± 0.01 % ID

**Q.** And the Blood ([2]; 192 h after administration)?
**A.** 0.02 ± 0.02 % ID/g

**Q.** What about the Brain ([2]; 192 h after administration) of the same compound?
**A.** 0.02 ± 0.00 % ID/g

**Q.** What about the Heart ([2]; 192 h after administration) of the same compound?
**A.** 0.22 ± 0.10 % ID/g

**Q.** What about the Intestine ([2]; 192 h after administration) of the same compound?
**A.** 0.10 ± 0.05 % ID/g

**Q.** And the Kidney ([2]; 192 h after administration)?
**A.** 1.83 ± 0.67 % ID/g

**Q.** What about the “LNCaP Tumor” value ([2]; 192 h after administration) of the same compound?
**A.** 5.16 ± 0.23 % ID/g

**Q.** And the Liver ([2]; 192 h after administration)?
**A.** 0.64 ± 0.24 % ID/g

**Q.** And the Lung ([2]; 192 h after administration)?
**A.** 0.29 ± 0.07 % ID/g

**Q.** And the Muscle ([2]; 192 h after administration)?
**A.** 0.08 ± 0.00 % ID/g

**Q.** And the Pancreas ([2]; 192 h after administration)?
**A.** 0.29 ± 0.11 % ID/g

**Q.** What about the Spleen ([2]; 192 h after administration) of the same compound?
**A.** 0.88 ± 0.34 % ID/g

**Q.** What about the “Stomach (% ID)” value ([2]; 192 h after administration) of the same compound?
**A.** 0.02 ± 0.01 % ID
